Molecular target: T1, human M2 receptor (Homo sapiens, UniProt P08172)
T1 construct: expressed in transfected cells; host or cells: CHO-DUKX (CHO-DUKX-M2-GIRK)
T1 sequence (P08172 1-466): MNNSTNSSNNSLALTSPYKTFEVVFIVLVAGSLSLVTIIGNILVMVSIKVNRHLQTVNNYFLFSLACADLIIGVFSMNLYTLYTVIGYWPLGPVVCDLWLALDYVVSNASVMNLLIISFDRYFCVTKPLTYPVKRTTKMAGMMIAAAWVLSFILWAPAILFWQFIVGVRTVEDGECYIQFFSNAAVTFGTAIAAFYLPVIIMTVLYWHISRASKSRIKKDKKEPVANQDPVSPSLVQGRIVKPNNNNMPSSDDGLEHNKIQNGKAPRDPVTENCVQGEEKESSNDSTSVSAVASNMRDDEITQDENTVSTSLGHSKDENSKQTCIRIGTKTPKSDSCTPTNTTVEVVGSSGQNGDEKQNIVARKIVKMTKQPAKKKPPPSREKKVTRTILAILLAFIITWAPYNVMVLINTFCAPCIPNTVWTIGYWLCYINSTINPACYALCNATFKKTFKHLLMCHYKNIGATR
Assay: Functional M2-GIRK1/4 activation test: allosteric potency (EC50) and efficiency at EC20 acetylcholine
Type: cell-based
Settings: CHO-DUKX-M2-GIRK cells; for EC50: voltage-sensitive dye, acetylcholine at EC20, in some cases mean of two or more determinations; for Emax: boosting of the acetylcholine effect at EC20 acetylcholine concentration
In short: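 Positive allosteric modulation measured as boosting of an EC20 acetylcholine response: hyperpolarization via GIRK1/4 in CHO-DUKX-M2-GIRK cells, monitored by membrane-potential dye fluorescence over 60 s after agonist, compound preadded. Hill-function fit gives EC50 and efficiency.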

EC50 [nM]	Emax [%]	SMILES
26	97	O=C(NC(C(F)(F)F)C(F)(F)F)c1cn(-c2c(F)cc(F)cc2F)c2nc(N3CCCC[C@@H]3CO)c(F)cc2c1=O [Example 188, 6-Fluoro-N-(1,1,1,3,3,3-hexafluoropropan-2-yl)-7-[(2R)-2-(hydroxymethyl)piperidin-1-yl]-4-oxo-1-(2,4,6-trifluorophenyl)-1,4-dihydro-1,8-naphthyridine-3-carboxamide]
30	100	O=C(NC(C(F)(F)F)C(F)(F)F)c1cn(-c2c(F)cc(F)cc2F)c2nc(N3CCC(O)(CO)CC3)c(F)cc2c1=O [Example 189, 6-Fluoro-N-(1,1,1,3,3,3-hexafluoropropan-2-yl)-7-[4-hydroxy-4-(hydroxymethyl)piperidin-1-yl]-4-oxo-1-(2,4,6-trifluorophenyl)-1,4-dihydro-1,8-naphthyridine-3-carboxamide]
83.5	100	O=C(NC(C(F)(F)F)C(F)(F)F)c1cn(-c2ncc(F)cc2F)c2nc(N3CCCC[C@@H]3CO)c(F)cc2c1=O [Example 190, 1-(3,5-Difluoropyridin-2-yl)-6-fluoro-N-(1,1,1,3,3,3-hexafluoropropan-2-yl)-7-[(2R)-2-(hydroxymethyl)piperidin-1-yl]-4-oxo-1,4-dihydro-1,8-naphthyridine-3-carboxamide]
48	100	O=C(NC(C(F)(F)F)C(F)(F)F)c1cn(-c2c(F)cc(F)cc2F)c2nc(N3CCC(CO)(CO)CC3)c(F)cc2c1=O [Example 191, 7-[4,4-bis(hydroxymethyl)piperidin-1-yl]-6-fluoro-N-(1,1,1,3,3,3-hexafluoropropan-2-yl)-4-oxo-1-(2,4,6-trifluorophenyl)-1,4-dihydro-1,8-naphthyridine-3-carboxamide]
128	100	CC(NC(=O)c1cn(-c2c(F)cc(F)cc2F)c2nc(N3CCCC(O)(CO)C3)c(F)cc2c1=O)C(F)(F)C(F)(F)F (stereo not shown) [Example 192, 6-Fluoro-7-[3-hydroxy-3-(hydroxymethyl)piperidin-1-yl]-4-oxo-N-[3,3,4,4,4-pentafluorobutan-2-yl]-1-(2,4,6-trifluorophenyl)-1,4-dihydro-1,8-naphthyridine-3-carboxamide]
32.5	100	CC(C)(NC(=O)c1cn(-c2c(F)cc(F)cc2F)c2nc(N3CC[C@H](O)[C@@H]3CO)c(F)cc2c1=O)C(F)(F)C(F)(F)F [Example 193, 6-Fluoro-7-[(2S,3S)-3-hydroxy-2-(hydroxymethyl)pyrrolidin-1-yl]-4-oxo-N-(3,3,4,4,4-pentafluoro-2-methylbutan-2-yl)-1-(2,4,6-trifluorophenyl)-1,4-dihydro-1,8-naphthyridine-3-carboxamide]
58	100	O=C(NC(C(F)(F)F)C(F)(F)F)c1cn(-c2ncc(F)cc2F)c2nc(N3CCC(CO)(CO)CC3)c(F)cc2c1=O [Example 195, 7-[4,4-bis(hydroxymethyl)piperidin-1-yl]-1-(3,5-difluoropyridin-2-yl)-6-fluoro-N-(1,1,1,3,3,3-hexafluoropropan-2-yl)-4-oxo-1,4-dihydro-1,8-naphthyridine-3-carboxamide]
63	100	O=C(NC(C(F)(F)F)C(F)(F)F)c1cn(-c2c(F)cc(F)cc2F)c2nc(N3CC4(COC4)C3)c(F)cc2c1=O [Example 196, 6-Fluoro-N-(1,1,1,3,3,3-hexafluoropropan-2-yl)-7-(2-oxa-6-azaspiro[3.3]hept-6-yl)-4-oxo-1-(2,4,6-trifluorophenyl)-1,4-dihydro-1,8-naphthyridine-3-carboxamide]
51	100	O=C(NC(C(F)(F)F)C(F)(F)F)c1cn(-c2ncc(F)cc2F)c2nc(N3CCC[C@@H]3CO)c(F)cc2c1=O [Example 197, 1-(3,5-Difluoropyridin-2-yl)-6-fluoro-N-(1,1,1,3,3,3-hexafluoropropan-2-yl)-7-[(2R)-2-(hydroxymethyl)pyrrolidin-1-yl]-4-oxo-1,4-dihydro-1,8-naphthyridine-3-carboxamide]
33	100	O=C(NC(C(F)(F)F)C(F)(F)F)c1cn(-c2ncc(F)cc2F)c2nc(N3CCC(O)(CO)CC3)c(F)cc2c1=O [Example 198, 1-(3,5-Difluoropyridin-2-yl)-6-fluoro-N-(1,1,1,3,3,3-hexafluoropropan-2-yl)-7-[4-hydroxy-4-(hydroxymethyl)piperidin-1-yl]-4-oxo-1,4-dihydro-1,8-naphthyridine-3-carboxamide]
14	100	O=C(NC(C(F)(F)F)C(F)(F)F)c1cn(-c2c(F)cc(F)cc2F)c2nc(N3CCC[C@@H]3CO)c(F)cc2c1=O [Example 199, 6-Fluoro-N-(1,1,1,3,3,3-hexafluoropropan-2-yl)-7-[(2R)-2-(hydroxymethyl)pyrrolidin-1-yl]-4-oxo-1-(2,4,6-trifluorophenyl)-1,4-dihydro-1,8-naphthyridine-3-carboxamide]
120	73	CC(NC(=O)c1cn(-c2c(F)cc(F)cc2F)c2nc(N3CCNCC(O)C3)c(F)cc2c1=O)C(F)(F)C(F)(F)F (stereo not shown) [Example 200, 6-Fluoro-7-[6-hydroxy-1,4-diazepan-1-yl]-4-oxo-N-[3,3,4,4,4-pentafluorobutan-2-yl]-1-(2,4,6-trifluorophenyl)-1,4-dihydro-1,8-naphthyridine-3-carboxamide]
16.5	91	C[C@@H](NC(=O)c1cn(-c2c(F)cc(F)cc2F)c2nc(N3C[C@@H](O)[C@H](O)C3)c(F)cc2c1=O)C(F)(F)F [Example 219, 7-[(3R,4R)-3,4-dihydroxypyrrolidin-1-yl]-6-fluoro-4-oxo-1-(2,4,6-trifluorophenyl)-N-[(2R)-1,1,1-trifluoropropan-2-yl]-1,4-dihydro-1,8-naphthyridine-3-carboxamide]
80	85	O=C(NCC(F)(F)F)c1cn(-c2c(F)cc(F)cc2F)c2nc(N3C[C@@H](O)[C@H](O)C3)c(F)cc2c1=O [Example 220, 7-[(3R,4R)-3,4-dihydroxypyrrolidin-1-yl]-6-fluoro-4-oxo-N-(2,2,2-trifluoroethyl)-1-(2,4,6-trifluorophenyl)-1,4-dihydro-1,8-naphthyridine-3-carboxamide]
31	85	O=C(NCC(F)(F)F)c1cn(-c2c(F)cc(F)cc2Cl)c2nc(N3C[C@@H](O)[C@H](O)C3)c(F)cc2c1=O [Example 221, 1-(2-Chloro-4,6-difluorophenyl)-7-[(3R,4R)-3,4-dihydroxypyrrolidin-1-yl]-6-fluoro-4-oxo-N-(2,2,2-trifluoroethyl)-1,4-dihydro-1,8-naphthyridine-3-carboxamide]
10	96	C[C@H](NC(=O)c1cn(-c2c(F)cc(F)cc2Cl)c2nc(N3C[C@@H](O)[C@H](O)C3)c(F)cc2c1=O)C(F)(F)F [Example 224, 1-(2-Chloro-4,6-difluorophenyl)-7-[(3R,4R)-3,4-dihydroxypyrrolidin-1-yl]-6-fluoro-4-oxo-N-[(2S)-1,1,1-trifluoropropan-2-yl]-1,4-dihydro-1,8-naphthyridine-3-carboxamide]
11	94	C[C@@H](NC(=O)c1cn(-c2c(F)cc(F)cc2Cl)c2nc(N3C[C@@H](O)[C@H](O)C3)c(F)cc2c1=O)C(F)(F)F [Example 227, 1-(2-Chloro-4,6-difluorophenyl)-7-[(3R,4R)-3,4-dihydroxypyrrolidin-1-yl]-6-fluoro-4-oxo-N-[(2R)-1,1,1-trifluoropropan-2-yl]-1,4-dihydro-1,8-naphthyridine-3-carboxamide]
4.8	82	O=C(N[C@@H](C1CC1)C(F)(F)F)c1cn(-c2c(F)cc(F)cc2F)c2nc(N3CCCC3)c(F)cc2c1=O [Example 231, N-[(1S)-1-cyclopropyl-2,2,2-trifluoroethyl]-6-fluoro-4-oxo-7-(pyrrolidin-1-yl)-1-(2,4,6-tri-fluorophenyl)-1,4-dihydro-1,8-naphthyridine-3-carboxamide]
9.7	90	CC(NC(=O)c1cn(-c2c(F)cc(F)cc2F)c2nc(N3CCC4(C3)NC(=O)N(C)C4=O)c(F)cc2c1=O)C(F)(F)C(F)(F)F (stereo not shown) [Example 234, 6-Fluoro-7-(3-methyl-2,4-dioxo-1,3,7-triazaspiro[4.4]non-7-yl)-4-oxo-N-[3,3,4,4,4-pentafluorobutan-2-yl]-1-(2,4,6-trifluorophenyl)-1,4-dihydro-1,8-naphthyridine-3-carboxamide]
4	92	CC(NC(=O)c1cn(-c2c(F)cc(F)cc2F)c2nc(N3CCC4(C3)NC(=O)NC4=O)c(F)cc2c1=O)C(F)(F)C(F)(F)F (stereo not shown) [Example 235, 7-(2,4-Dioxo-1,3,7-triazaspiro[4.4]non-7-yl)-6-fluoro-4-oxo-N-[3,3,4,4,4-pentafluorobutan-2-yl]-1-(2,4,6-trifluorophenyl)-1,4-dihydro-1,8-naphthyridine-3-carboxamide]

Reference: patent US11472803B2, “7-substituted 1-aryl-naphthyridine-3-carboxylic acid amides and use thereof” (Bayer Aktiengesellschaft, priority 2016, dated 2022)
